Assay type in all cases: functional, organism-based
The subject of assay [1] is Trypanosoma cruzi. In words: Antiparasitic activity against Trypanosoma cruzi Y trypomastigotes assessed as lysis of parasite at 250 ug/mL after 24 hrs.
For assay [2], the system named is Leishmania donovani. In words: Antiparasitic activity against Leishmania donovani assessed as lysis of parasite at 5 ug/mL.
Assay [3] concerns Leishmania braziliensis. In words: Antiparasitic activity against Leishmania braziliensis assessed as lysis of parasite at 5 ug/mL.
Assay [4] deals with Leishmania amazonensis. Briefly: Antiparasitic activity against Leishmania amazonensis assessed as lysis of parasite at 5 ug/mL.
The test system of assay [5] is Leishmania braziliensis. In words: Antiparasitic activity against Leishmania braziliensis assessed as lysis of parasite at 100 ug/mL.
The subject of assay [6] is Leishmania braziliensis. Briefly: Antiparasitic activity against Leishmania braziliensis at 25 ug/mL.
Assay [7] relates to Leishmania donovani. Briefly: Antiparasitic activity against Leishmania donovani assessed as lysis of parasite at 100 ug/mL.
The subject of assay [8] is Trypanosoma cruzi. In words: Antiparasitic activity against Trypanosoma cruzi Y trypomastigotes assessed as lysis of parasite after 24 hrs.
The subject of assay [9] is Leishmania donovani. In words: Antiparasitic activity against Leishmania donovani at 25 ug/mL.
The subject of assay [10] is Leishmania amazonensis. Briefly: Antiparasitic activity against Leishmania amazonensis at 25 ug/mL.
Assay [11] concerns Leishmania amazonensis. In words: Antiparasitic activity against Leishmania amazonensis assessed as lysis of parasite at 100 ug/mL.

Results on five molecules are retold here after ChEMBL document CHEMBL1158220, “New prenylated quinones from Peperomia galioides” (J Nat Prod, 1996).

Calls of active or inactive are those of the source. The rule behind the calls is not given here.

As to `CN(C)c1ccc(C(=C2C=CC(=[N+](C)C)C=C2)c2ccc(N(C)C)cc2)cc1`, the result in assay [1] was Active.

As to `N=C(N)c1ccc(OCCCCCOc2ccc(C(=N)N)cc2)cc1`, the outcome in assay [2], in assay [3] and in [4] was Active.

Regarding `CC(C)=CCC/C(C)=C/CC1=C(O)C(=O)C(C)(CC=C(C)C)CC1=O` (stereo not given), the result in assay [5], in [6], in [7], in [9], in [10] and in assay [11] was Active. In assay [8], the outcome was inactive.

Turning to MEGLUMINE ANTIMONATE, the Activity in [5], in assay [7] and in [11] was 40% in each case.

Turning to `CC(C)=CCCC1(C)C=CC2=C(O1)C(=O)C(C)=C(CC=C(C)C)C2=O` (stereo not given), in [8], the result was inactive.
